Experimental data from patent US11701433B2, “Complexes for delivery of antigenic peptides” (The Regents of the University of Michigan, priority 2017, dated 2023).

Assays:
MOC2-E6/E7 tumors = assay: Real time PCR of Ifna4 and Ifnb1 in tumor homogenates; type: in vivo, C57BL/6 mice; conditions: R9F/Q15L study, tumors harvested 25 days post-implantation
Experimental: Experimental animals and treatments: Female C57BL6 mice, aged 6-8 weeks, were purchased from the Jackson Laboratory, and maintained in a pathogen-free facility at the University of Michigan. All animal work were done in accordance with and approved by the Institutional Animal Care & Use Committee (IACUC) at the University of Michigan, Ann Arbor. Syngeneic squamous cell carcinoma cells were implanted subcutaneously at the neck. Tumors were measured every other day using a caliper, and the tumor volume was calculated as 0.52×length×width^2. […] To test the efficacy of the vaccine formulations, MOC2-E6/E7 cells were implanted subcutaneously on the back of the neck on day 0. […] Anti-PD-L1 (100 μg/100 μl) (clone B7H1, BioXCell, West Lebanon, N.H.) was administered through intraperitoneal injection on day 1 and 4 after each vaccination.

STING = assay: Immunoblot of STING protein level in SOX2-expressing cells treated with inhibitors of autophagy; type: cell-based; conditions: HEK-293T and UMSCC22b cells
Experimental: Cell culture: UMSCC22b and UMSCC47 were obtained from the U-M Head and Neck Cancer SPORE. PCI-13 was obtained from the University of Pittsburgh Head and Neck Cancer SPORE. HEK-293T was purchased from ATCC. The human HNSCC cells and HEK293T cells were maintained in complete DMEM medium. The MOC2-E6/E7 cells were obtained from Dr. David Mooney at Harvard University, the parental and derivative cell lines were cultured in 30% F12 nutrient mix (Thermo Fisher Scientific, Waltham, Mass.), 5% FBS, puromycin […], insulin (4 mg/ml), hydrocortisone (200 ug/ml), EGF (100 ug/ml) and penicillin (100 U/ml) and streptomycin […]. THP1-blue ISG cells (Cat. thp-isg, InvivoGen, San Diego, Calif.) were cultured in RPMI media supplemented with 10% FBS, 1% penicillin, streptomycin, Normocin and Zeocin. NK cells, T cells, and tumor-infiltrating lymphocytes were cultured in complete RPMI 1640 medium. Peripheral blood monocytes were separated from healthy volunteers using Ficoll-Paque gradient. Primary human NK and CD8^+ T cells were separated using a NK cell enrichment kit and a CD8^+ T cell enrichment kit, respectively (Cat. 19055 and Cat. 19053, […] Technologies Inc, Cambridge, Mass.). All cells were cultured in 37° C. incubator with 5% CO2. […] Tumors were measured every other day using a caliper, and the tumor volume was calculated as 0.52×length×width^2. […]

Row | Compound | production of Ifna4 and Ifnb1 in tumors (MOC2-E6/E7 tumors) | SOX2-induced decrease in STING protein level (STING)
1 | cyclic GMP-AMP [cGAMP] | modest effect | 
2 | CCN(CC)CCCC(C)Nc1ccnc2cc(Cl)ccc12 (stereo not drawn) [chloroquine] |  | partially restored
3 | CO/C1=C\C(C)=C\[C@@H](C)[C@@H](O)[C@@H](C)C/C(C)=C/C=C/[C@H](OC)[C@@H]([C@@H](C)[C@@H](O)[C@H](C)[C@@]2(O)C[C@@H](O)[C@H](C)[C@@H](C(C)C)O2)OC1=O [bafilomycin A] |  | partially restored
